Data published in patent US10231453B2, “5-substituted imidazole derivatives” (BAYER CROPSCIENCE AKTIENGESELLSCHAFT, priority 2015, dated 2019).
Read-outs that look alike come from different tables or passages of the source.

What was measured:
Uromyces appendiculatus = test: In vivo preventive test on Uromyces appendiculatus (bean rust), Examples G and R7; conditions: 264 h, 500 ppm of active ingredient, bean, preventive spray, evaluated 11 days after inoculation, read-out: efficacy
Septoria tritici = test: In vivo preventive test on Septoria tritici (leaf spot on wheat), Examples E, Q3 and R5; conditions: Zymoseptoria tritici, 576 h, 500 ppm of active ingredient; wheat, preventive spray, evaluated 24 days after inoculation; read-out: efficacy
Pyrenophora teres = test: In vivo preventive test on Pyrenophora teres (net blotch on barley), Examples D, Q2 and R4; conditions: Pyrenophora teres, 336 h, 500 ppm of active ingredient, preventive spray, evaluated 14 days after inoculation, read-out: efficacy
Puccinia recondita = test: In vivo preventive test on Puccinia recondita (brown rust on wheat), Examples C and R3; conditions: Puccinia recondita, 264 h; 500 ppm of active ingredient; wheat, preventive spray, evaluated 11 days after inoculation; read-out: efficacy
Sphaerotheca fuliginea = test: In vivo preventive test on Sphaerotheca fuliginea (powdery mildew on cucurbits), Examples F and R6; conditions: Podosphaera fuliginea, 360 h; 500 ppm of active ingredient; gherkin, preventive spray, evaluated 15 days after inoculation; read-out: efficacy
Botrytis cinerea = test: In vivo preventive test on Botrytis cinerea (grey mould) on gherkin, Examples B, Q1 and R2; conditions: for pest or weed control at 500 ppm / pest or weed control at 100 ppm: Botrytis cinerea
[1] = Measurement of LogP values by HPLC on reversed phase columns (EEC directive 79/831 Annex V.A8); assay type: physicochemical; conditions: method [a]: LC-UV, acidic range, 0.1% formic acid in water and acetonitrile as eluent; Table 1
Protocol: Measurement of Log P values was performed as outlined above.

[2] = 500 ppm of active ingredient, preventive spray, evaluated 4 to 5 days after inoculation, read-out: efficacy
[3] = Example R2, rate of application 100 ppm
[4] = Example R2, rate of application 500 ppm
[5] = Example R2, rate of application 100 ppm, read-out: Efficacy in %
[6] = Example R2, rate of application 500 ppm, read-out: Efficacy in %

SMILES	pest or weed control at 500 ppm (Uromyces appendiculatus) [%]	pest or weed control at 500 ppm (Septoria tritici) [%]	pest or weed control at 500 ppm (Pyrenophora teres) [%]	pest or weed control at 500 ppm (Puccinia recondita) [%]	pest or weed control at 500 ppm (Sphaerotheca fuliginea) [%]	pest or weed control at 500 ppm (Botrytis cinerea; [2]) [%]	chromatographic logP [1]	Efficacy in % (Botrytis cinerea; [3]) [%]	Efficacy in % (Botrytis cinerea; [4]) [%]	pest or weed control at 100 ppm (Botrytis cinerea; [5]) [%]	pest or weed control at 500 ppm (Botrytis cinerea; [6]) [%]
N#Cc1cncn1CC(O)(Cc1ccnc(Br)c1Br)C1(Cl)CC1 (stereo not shown) [Example I-48]	90 to 100	90 to 100	70 to 79	80 to 89	90 to 100	–	–	–	–	–	–
CC(C)C(O)(Cc1cccc(F)c1F)Cn1cncc1C#N (stereo not shown) [Example I-149]	90 to 100	80 to 89	–	90 to 100	90 to 100	70 to 79	2.47	–	–	–	–
OC(Cc1ccccc1I)(Cn1cncc1Cl)C1(Cl)CC1 (stereo not shown) [Example I-167]	90 to 100	–	80 to 89	80 to 89	90 to 100	90 to 100	–	–	–	–	–
N#Cc1cncn1CC(O)(Cc1cccc(F)c1F)CC1CC1 (stereo not shown) [Example I-151]	90 to 100	90 to 100	70 to 79	80 to 89	90 to 100	–	2.66	–	–	–	–
O=Cc1cncn1CC(O)(Cc1ccccc1Cl)C1(Cl)CC1 (stereo not shown) [Example I-12]	90 to 100	90 to 100	90 to 100	80 to 89	90 to 100	–	–	–	–	–	–
COC(Cc1ccc(Cl)cc1F)(Cn1cncc1C#N)C1CC1 (stereo not shown) [Example I-121]	90 to 100	90 to 100	70 to 79	80 to 89	90 to 100	–	3.31	–	–	–	–
N#Cc1cncn1CC(O)(Cc1ccccc1I)C1(Cl)CC1 (stereo not shown) [Example I-166]	90 to 100	70 to 79	80 to 89	90 to 100	90 to 100	–	3.13	–	–	–	–
N#CCc1cncn1CC(O)(Cc1ccccc1Cl)C1(Cl)CC1 (stereo not shown) [Example I-21]	70 to 79	70 to 79	–	80 to 89	90 to 100	90 to 100	1.66	–	–	–	–
Cc1ccc(CC(O)(Cn2cncc2C#N)C2(Cl)CC2)c(C)c1 (stereo not shown) [Example I-51]	80 to 89	90 to 100	90 to 100	90 to 100	90 to 100	–	–	–	–	–	–
N#Cc1cncn1CC(O)(Cc1cc(Cl)ncc1Cl)C1(Cl)CC1 (stereo not shown) [Example I-56]	90 to 100	90 to 100	70 to 79	80 to 89	90 to 100	–	2.62	–	–	–	–
N#Cc1cncn1CC(O)(Cc1ccccc1F)C1CCC1 (stereo not shown) [Example I-137]	90 to 100	90 to 100	–	80 to 89	90 to 100	70 to 79	2.46	–	–	–	–
OC(Cc1ccc(Cl)cc1F)(Cn1cnc(Br)c1)C1(Cl)CC1 (racemic) [drawing 79, reference compound]	–	–	–	–	–	–	–	0	19	–	–
C#Cc1cn(CC(O)(Cc2ccccc2F)C2(Cl)CC2)cn1 (stereo not shown) [drawing 74, reference compound]	–	–	–	–	–	–	–	–	–	0	0
Cc1cccc(CC(O)(Cn2cncc2C#N)C2(Cl)CC2)c1 (stereo not shown) [Example I-59]	90 to 100	90 to 100	–	80 to 89	90 to 100	90 to 100	–	–	–	–	–
N#Cc1cn(CC(O)(Cc2ccc(Cl)cc2F)C2(Cl)CC2)cn1 (racemic) [drawing 81, reference compound]	–	–	–	–	–	–	–	0	0	–	–
OC(Cc1ccccc1F)(Cn1cnc(Cl)c1)C1(Cl)CC1 (stereo not shown) [drawing 76, reference compound]	–	–	–	–	–	–	–	–	–	0	0
OC(Cc1cccnc1Cl)(Cn1cncc1Cl)C1(Cl)CC1 (stereo not shown) [Example I-07]	90 to 100	90 to 100	70 to 79	80 to 89	90 to 100	–	1.57	–	–	–	–
N#Cc1cncn1CC(O)(Cc1ccc(Cl)cc1F)CC1CC1 (stereo not shown) [Example I-120]	90 to 100	70 to 79	70 to 79	90 to 100	90 to 100	–	–	–	–	–	–
N#Cc1cn(CC(O)(Cc2ccccc2Cl)C2(Cl)CC2)cn1 (stereo not shown) [drawing 72, reference compound]	–	–	–	–	–	–	–	–	–	0	0
Cc1cccc(CC(O)(Cn2cncc2Cl)C2(Cl)CC2)c1F (stereo not shown) [Example I-143]	–	90 to 100	70 to 79	90 to 100	90 to 100	–	2.35	–	–	–	–
CC(C)C(O)(Cc1ccc(F)cc1F)Cn1cncc1C#N (stereo not shown) [Example I-128]	90 to 100	90 to 100	–	90 to 100	90 to 100	90 to 100	2.52	–	–	–	–
Cc1ccc(CC(O)(Cn2cncc2Cl)C2(Cl)CC2)cc1 (stereo not shown) [Example I-76]	–	90 to 100	90 to 100	90 to 100	90 to 100	90 to 100	–	–	–	–	–
OC(Cc1ccccc1Cl)(Cn1cnc(Br)c1)C1(Cl)CC1 (stereo not shown) [drawing 70, reference compound]	–	–	–	–	–	–	–	–	–	5	0
OC(Cc1ccc(Cl)cc1F)(Cn1cnc(Cl)c1)C1(Cl)CC1 (racemic) [drawing 83, reference compound]	–	–	–	–	–	–	–	0	0	–	–
OC(Cc1ccccc1C(F)(F)F)(Cn1cncc1Cl)C1(Cl)CC1 (stereo not shown) [Example I-89]	90 to 100	–	80 to 89	80 to 89	90 to 100	–	2.62	–	–	–	–
Cc1cccc(CC(O)(Cn2cncc2Cl)C2(Cl)CC2)c1 (stereo not shown) [Example I-73]	–	80 to 89	80 to 89	80 to 89	90 to 100	90 to 100	–	–	–	–	–
N#Cc1cncn1CC(O)(Cc1cccc(F)c1F)C1CCC1 (stereo not shown) [Example I-148]	90 to 100	90 to 100	80 to 89	90 to 100	–	–	2.57	–	–	–	–
OC(Cc1ccccc1F)(Cn1ccnc1Cl)C1(Cl)CC1 (stereo not shown) [drawing 77, reference compound]	–	–	–	–	–	–	–	–	–	0	0
N#Cc1cn(CC(O)(Cc2ccccc2F)C2(Cl)CC2)cn1 (stereo not shown) [drawing 85, reference compound]	–	–	–	–	–	–	–	–	–	0	0
N#Cc1cncn1CC(O)(Cc1cccc(Cl)c1Cl)C1CCC1 (stereo not shown) [Example I-85]	90 to 100	90 to 100	80 to 89	90 to 100	90 to 100	–	3.31	–	–	–	–
